From ChEMBL document CHEMBL1201862, “PubChem BioAssay data set” (2004)
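Five concentrations, 48 hours, 96-well plates. Abbreviation: GI50, concentration required for 50% inhibition of growth.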 Active and inactive are the calls of the source. Cut-off read from the data, not from the text of the source: active = GI50 up to about 1.1 µM and inactive = higher.

Legend:
Assay in all cases: inhibition of tumour cell growth, NCI panel, 48 h
HL-60 = test system: HL-60
HOP-18 = test system: HOP-18
XF498 = test system: XF498
HOP-62 = test system: HOP-62
IGROV-1 = test system: IGROV-1
DLD-1 = test system: DLD-1
DMS-114 = test system: DMS-114
MOLT-4 = test system: MOLT-4
OVCAR-8 = test system: OVCAR-8
KM-20L2 = test system: KM-20L2
A498 = test system: A498
NCI-H23 = test system: NCI-H23
K562 = test system: K562
DMS-273 = test system: DMS-273
SNB-78 = test system: SNB-78
PC-3 = test system: PC-3
MDA-MB-435 = test system: MDA-MB-435
MDA-MB-231 = test system: MDA-MB-231
T47D = test system: T47D
MDA-N = test system: MDA-N

Measured: GI50

Nc1nnc(CCC(=O)Nc2cc(Cl)ccc2Cl)n1N
inactive: HL-60 > 100 µM | HOP-18 > 100 µM | XF498 > 100 µM | HOP-62 > 100 µM | IGROV-1 > 100 µM | DLD-1 > 100 µM | DMS-114 > 100 µM | MOLT-4 > 100 µM | OVCAR-8 > 100 µM | KM-20L2 > 100 µM | A498 > 100 µM | NCI-H23 > 100 µM | K562 > 100 µM | DMS-273 > 100 µM | SNB-78 > 100 µM

CCOC(=O)C(=O)Nc1cccc(C)c1C
inactive: HL-60 > 100 µM | HOP-18 > 100 µM | XF498 > 100 µM | HOP-62 > 100 µM | IGROV-1 > 100 µM | DLD-1 > 100 µM | DMS-114 > 100 µM | MOLT-4 > 100 µM | OVCAR-8 > 100 µM | KM-20L2 > 100 µM | A498 > 100 µM | NCI-H23 > 100 µM | K562 > 100 µM | DMS-273 > 100 µM | SNB-78 > 100 µM

COC[C@@H](Cc1ccc(OC)c(OC)c1)[C@@H](COC)Cc1ccc(OC)c(OC)c1
inactive: HL-60 > 100 µM | HOP-18 > 100 µM | XF498 > 100 µM | IGROV-1 > 100 µM | DLD-1 > 100 µM | DMS-114 56.5 µM | MOLT-4 60.3 µM | OVCAR-8 > 100 µM | KM-20L2 > 100 µM | A498 > 100 µM | NCI-H23 > 100 µM | K562 > 100 µM | DMS-273 76.6 µM | SNB-78 > 100 µM

Cc1cc2oc3c(ccc(=O)n3C)c(=O)c2c(C)c1Cl
inactive: HL-60 37.6 µM | PC-3 37.4 µM | MDA-MB-435 28.1 µM | HOP-62 49.7 µM | IGROV-1 32.1 µM | MDA-MB-231 31.8 µM | T47D 50.1 µM | OVCAR-8 76.2 µM | MDA-N 52.8 µM | A498 46.8 µM | NCI-H23 44.6 µM | K562 41.9 µM

CCOC(=O)/C(=C/c1cn(C(C)=O)c2ccccc12)P(=O)(OC)OC
inactive: HL-60 18 µM | PC-3 25.9 µM | MDA-MB-435 36.4 µM | HOP-62 63.4 µM | IGROV-1 25.6 µM | MDA-MB-231 43.8 µM | T47D 13.7 µM | MOLT-4 25.4 µM | OVCAR-8 46.7 µM | A498 15.3 µM | NCI-H23 33.8 µM | K562 25.6 µM

CN(C)/N=N/c1ccc([N+](=O)[O-])cc1C(N)=O
inactive: HOP-18 > 100 µM | XF498 > 100 µM | HOP-62 > 90.4 µM | IGROV-1 > 100 µM | DLD-1 > 100 µM | DMS-114 > 100 µM | MOLT-4 > 79.6 µM | OVCAR-8 > 100 µM | KM-20L2 > 100 µM | A498 > 80.9 µM | NCI-H23 > 100 µM | K562 > 100 µM | DMS-273 > 100 µM | SNB-78 > 100 µM

CCCCNC1=C2C(=O)NN=C2CO1
inactive: HL-60 > 100 µM | XF498 > 100 µM | HOP-62 > 100 µM | IGROV-1 > 100 µM | DLD-1 > 100 µM | DMS-114 > 100 µM | MOLT-4 > 100 µM | OVCAR-8 > 100 µM | KM-20L2 > 100 µM | A498 > 100 µM | NCI-H23 > 100 µM | K562 > 100 µM | DMS-273 > 100 µM | SNB-78 > 100 µM

CCc1c(-c2ccccc2)[nH]c2ccccc2c1=O
inactive: HL-60 > 100 µM | MDA-MB-435 46.2 µM | HOP-62 47.4 µM | MDA-MB-231 70.6 µM | T47D 46.5 µM | MOLT-4 95.7 µM | MDA-N 47.5 µM | A498 33.4 µM | NCI-H23 55.3 µM | K562 28.6 µM

N=C(NNS(=O)(=O)c1ccccc1)Oc1ccc(Cl)cc1
inactive: HL-60 21.1 µM | HOP-18 > 100 µM | XF498 > 100 µM | HOP-62 > 100 µM | IGROV-1 > 100 µM | DLD-1 90.2 µM | DMS-114 69.5 µM | MOLT-4 68.5 µM | OVCAR-8 > 100 µM | KM-20L2 > 100 µM | A498 > 100 µM | NCI-H23 > 100 µM | K562 24.8 µM | DMS-273 > 100 µM | SNB-78 > 100 µM

Cc1ccc(S(=O)(=O)N2CCCSCC2)cc1
inactive: PC-3 > 100 µM | MDA-MB-435 95.7 µM | MDA-MB-231 > 100 µM | T47D > 100 µM | MOLT-4 > 100 µM | OVCAR-8 > 100 µM | MDA-N > 100 µM | A498 > 100 µM | NCI-H23 > 100 µM | K562 > 100 µM
